Consider 1 compound from US10441569B2, “Self-emulsifying formulations of DIM-related indoles” (BioResponse, L.L.C., priority 2015, dated 2019).

The nature of data set [1]: Intra-individual comparison of DIM plasma levels, one adult subject. Type of data set: in vivo. The conditions noted are these: human, same adult subject, 300 mg oral. Here is the method: Repeated single-use of 300 mg oral doses of DIM in different DIM formulations was conducted. Absorption studies using the same adult subject on separate test days were performed. This allowed comparison of DIM absorption and Plasma Pharmacokinetics through comparison of DIM plasma levels measured following administration of unformulated crystalline DIM, following administration of absorption-enhanced, microencapsulated DIM (BR-DIM), following administration of DIM SMEDDS Formulation “D” without Poloxamer 124, and following administration of DIM SMEDDS Formulation “G” with Poloxamer 124, to the human subject. The same oral administration and timed plasma sampling protocol was used on different study days, separated by at least 2 weeks. Plasma level results for each time point are presented in the following chart.

Data set [2] in a line: Shake-flask determination of maximum solubility of DIM. The data set is classed as physicochemical. The note with it: for solubility: 37 °C, thermodynamic from solid, read-out: maximal solubility. Here is the method:
In directly determining the solubility of DIM the shake-flask method for determination of maximum solubility in aqueous media was utilized. The solubility was determined as described by Lindenberg et al., 2004, Eur J Pharm Biopharm. 58(2):265-78. The drug was weighed in excess of its expected solubility in Uniprep® vials equipped with a 0.45-μm membrane filter, and 2 ml of Milli-Q water, 0.01N HCL (pH 2.0), or phosphate buffer (pH 7.4) (USP) was added into the vial. The vials were incubated at 37±0.5° C. while shaking on a “Polymax 1040” orbital shaker (Heidolph, Schwabach). The samples of the solutions were taken after 4 or 24 hours by pressing the Uniprep® plunger down, diluted as appropriate, and the concentration of DIM was analyzed by HPLC, as described below. The measurements were done in triplicate. The maximum concentration of DIM in aqueous media used in this study was 0.6 μg/ml. The solubility or stability was not influenced by pH and was similar in water, 0.01N HCl or PBS (pH 7.4).

A short description of data set [3]: Particle size after dispersion and spontaneous emulsion formation in water (laser light scattering). The data set is classed as physicochemical. The note with it: Malvern Mastersizer, DIM as supplied by BioResponse. Here is the method:
Each of the formulations were tested by dispersing approximately 1 gram of the candidate formulation in 200 mL of deionized water at approximately 37° C. with slow stirring of a magnetic spin bar in a 1 L beaker. Within five minutes of the addition, sufficient mixture was added to a Malvern Mastersizer dynamic laser light scattering instrument to satisfy the obscuration of the laser beams needed for measurement.
Some of the formulations were formulated with and without Soluplus and with and without phosphatidyl choline-rich isolates from lecithin. The formulations were tested by dispersing approximately 1 gram of the candidate formulation in 200 mL of deionized water at approximately 37° C. with slow stirring of a magnetic spin bar in a 1 L beaker. Within five minutes of the addition, sufficient mixture was added to a Malvern Mastersizer dynamic laser light scattering instrument to satisfy the obscuration of the laser beams needed for measurement.
The dispersions of Formulations R and T were tested for particle size by laser diffraction following dispersion and spontaneous emulsion formation in water. […] The particle size determined is expressed as diameter in microns (μ) in the following chart, and comparison is made to other nutritional and pharmaceutical formulations described herein: […]

≈ marks a conversion by molar mass, not a printed value. Like-named read-outs stand apart in the source and are kept apart here.

As to `c1ccc2c(Cc3c[nH]c4ccccc34)c[nH]c2c1` [DIM, 3,3′-diindolylmethane], in data set [1], the AUC turned out to be 17 ng·h/mL and the peak level (Cmax) was 6.8 ng/mL. Besides, in data set [1] (time 0 hr, read-out: Plasma level of DIM), the concentration at 0 h stood at 0 ng/mL. Besides, in data set [1] (time 1 hr, read-out: Plasma level of DIM), the concentration at 1 h worked out at 4.5 ng/mL. Besides, in data set [1] (time 2 hr, read-out: Plasma level of DIM), the concentration at 2 h came to 6.8 ng/mL. Besides, in data set [1] (time 3 hr, read-out: Plasma level of DIM), the concentration at 3 h amounted to 4.7 ng/mL. Moreover, the concentration at 4 h in data set [1] (time 4 hr, read-out: Plasma level of DIM) worked out at 2.6 ng/mL. In data set [2] (0.01N HCl, simulated gastric fluid, aqueous acid environment of pH 2), the solubility was 0.6 µg/mL (≈ 2.44 µM). Further, the solubility in data set [2] (in water) came out at 0.7 µg/mL (≈ 2.84 µM). Moreover, the “concentration of DIM in Octanol” value in data set [2] (Octanol, shake-flask method, HPLC) is given as 2,300 μg/ml. In data set [2] (water, 0.01N HCl (pH 2.0) or phosphate buffer (pH 7.4), 37°C), the “maximum concentration of DIM in aqueous media” value was 0.6 µg/mL. Moreover, the “Particle Size Diameter after Dispersion in Water (nm)” value in data set [3] was 3,010^1^ nm.
